Test results from patent publication US20250313563A1, “GLYCOGEN SYNTHASE KINASE 3 INHIBITORS AND USES THEREOF” (The Broad Institute, Inc., priority 2022, published 2025).
Where two headings read alike, the source gives them in different places.

Legend:
[1] = molecular target: GSK3α (GST-full length GSK3α) (Homo sapiens (Human), UniProt P49840); experiment: GSK3α TR-FRET kinase assay; assay type: biochemical
Outline: (§1)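 Full-length GST-tagged human enzyme (1 nM) is exposed to test compound for 30 min before substrates are added. Phosphorylation of a primed biotinylated glycogen synthase peptide proceeds 100 min at room temperature at low ATP (4 μM α; 2 μM β) or high ATP (1 mM). Product is quantified by TR-FRET.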

[2] = molecular target: GSK3b (GST-full length GSK3b) (Homo sapiens (Human), UniProt P49841); experiment: GSK3b TR-FRET kinase assay; assay type: biochemical
GSK3b (GST-full length GSK3b), sequence (P49841 whole entry): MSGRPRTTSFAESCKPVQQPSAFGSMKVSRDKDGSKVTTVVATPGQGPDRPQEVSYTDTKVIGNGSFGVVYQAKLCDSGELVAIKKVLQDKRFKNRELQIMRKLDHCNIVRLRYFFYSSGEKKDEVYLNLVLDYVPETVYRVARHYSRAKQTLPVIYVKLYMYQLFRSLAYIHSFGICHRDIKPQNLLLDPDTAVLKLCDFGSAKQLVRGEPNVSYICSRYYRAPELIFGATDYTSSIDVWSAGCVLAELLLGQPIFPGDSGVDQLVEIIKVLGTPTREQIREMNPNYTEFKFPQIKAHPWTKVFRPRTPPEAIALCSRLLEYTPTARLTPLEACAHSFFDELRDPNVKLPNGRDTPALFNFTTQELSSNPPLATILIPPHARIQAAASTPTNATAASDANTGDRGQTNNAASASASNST
Outline: as §1

[3] = 1 nM GSK3α, 4 μM ATP, 30 minute preincubation, Table 16, read-out: GSK3-A TR-FRET BIOCHEMICAL (TR-FRET)
[4] = 1 nM GSK3b, 2 μM ATP, 30 minute preincubation, Table 16, read-out: GSK3-B TR-FRET BIOCHEMICAL (TR-FRET)
[5] = 1 nM GSK3α, 4 μM ATP, 30 minute preincubation, Table 16, read-out: GSK3-A TR-FRET BIOCHEMICAL (TR-FRET), IC50
[6] = 1 nM GSK3b, 2 μM ATP, 30 minute preincubation, Table 16, read-out: GSK3-B TR-FRET BIOCHEMICAL (TR-FRET), IC50
[7] = read-out: GSK3-A (TR-FRET 1 mM ATP), GMean, IC50, 1 mM ATP, geometric mean
[8] = read-out: GSK3-B (TR-FRET 1 mM ATP), GMean, IC50, 1 mM ATP, geometric mean
[9] = 1 nM GSK3α, 4 μM ATP, 30 minute preincubation, read-out: GSK3-A TR-FRET BIOCHEMICAL (TR-FRET), IC50
[10] = 1 nM GSK3b, 2 μM ATP, 30 minute preincubation, read-out: GSK3-B TR-FRET BIOCHEMICAL (TR-FRET), IC50

GSK3α (GST-full length GSK3α), sequence (P49840 whole entry): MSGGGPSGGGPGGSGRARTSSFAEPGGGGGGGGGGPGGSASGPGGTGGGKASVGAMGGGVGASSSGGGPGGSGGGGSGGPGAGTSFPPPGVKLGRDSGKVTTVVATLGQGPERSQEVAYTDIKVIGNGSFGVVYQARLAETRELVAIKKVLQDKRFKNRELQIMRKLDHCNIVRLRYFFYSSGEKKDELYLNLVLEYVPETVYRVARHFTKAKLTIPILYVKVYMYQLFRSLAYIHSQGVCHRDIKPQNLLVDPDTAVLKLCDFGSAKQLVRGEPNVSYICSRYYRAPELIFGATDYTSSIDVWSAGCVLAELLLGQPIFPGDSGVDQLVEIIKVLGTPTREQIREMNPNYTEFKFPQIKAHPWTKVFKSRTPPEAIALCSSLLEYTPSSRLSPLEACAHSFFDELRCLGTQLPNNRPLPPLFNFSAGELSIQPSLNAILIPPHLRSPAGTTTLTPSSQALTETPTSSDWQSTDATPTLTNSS

Work on `COc1ccc(S(=O)(=O)N2CCCC3(CC2)C2=C(CC(C)(C)CC2=O)Nc2n[nH]cc23)cc1` (stereo not drawn) [Compound 917141] yielded an IC50 [1, 3] of no more than 100 nM and an IC50 [2, 4] of 100 to 1000 nM.
Work on `COc1ccccc1S(=O)(=O)N1CCCC2(CC1)C1=C(CC(C)(C)CC1=O)Nc1n[nH]cc12` (stereo not drawn) [Compound 917142] yielded an IC50 [1, 3] of no more than 100 nM and an IC50 [2, 4] of 100 to 1000 nM.
Work on `COc1ccc(S(=O)(=O)N2CCC3(CC2)C2=C(CC(C)(C)CC2=O)Nc2n[nH]cc23)cc1` [Compound 917143] yielded an IC50 [1, 3] of no more than 100 nM and an IC50 [2, 4] of no more than 100 nM.
`CC1(C)CC(=O)C2=C(C1)Nc1n[nH]cc1C21CN(S(=O)(=O)c2ccc(F)cc2)C1` [Compound 917144] showed an IC50 [1, 3] of no more than 100 nM and an IC50 [2, 4] of no more than 100 nM.
Compound `CC1(C)CC(=O)C2=C(C1)Nc1n[nH]cc1C21CCCN(c2ccncn2)CC1` (stereo not drawn) [Compound 917145] has an IC50 [1, 5] of 1000 to 5000 nM and an IC50 [2, 6] of 1000 to 5000 nM.
For `CCC1(c2cccc(N(C)c3ccnc(F)c3)c2)C2=C(CC(C)(C)CC2=O)Nc2n[nH]cc21` (stereo not drawn) [Compound 917146], the IC50 [1, 5] was no more than 100 nM and the IC50 [2, 6] was no more than 100 nM.
With `CCc1cc(N(C)c2cccc(C3(CC)C4=C(CC(C)(C)CC4=O)Nc4n[nH]cc43)c2)ccn1` (stereo not drawn) [Compound 917147] the IC50 [1, 5] was no more than 100 nM and the IC50 [2, 6] was 100 to 1000 nM.
For `CCC1(c2cccc(N(C)c3ccnc(C)c3)c2)C2=C(CC(C)(C)CC2=O)Nc2n[nH]cc21` (stereo not drawn) [Compound 917149], the IC50 [1, 5] was 100 to 1000 nM and the IC50 [2, 6] was 1000 to 5000 nM.
`CCC1(c2cccc(S(=O)(=O)CC3CC3)c2)C2=C(CC(C)(C)CC2=O)Nc2n[nH]cc21` (stereo not drawn) [Compound 917150] was tested, and the IC50 [1, 5] was no more than 100 nM, the IC50 [1, 7] was no more than 100 nM and the IC50 [2, 6] was no more than 100 nM. For the same compound, the IC50 [2, 8] was 100 to 1000 nM.
Compound `CC[C@@]1(c2cccc(S(=O)(=O)CC3CC3)c2)C2=C(CC(C)(C)CC2=O)Nc2n[nH]cc21` [Compound 917151] has an IC50 [1, 5] of 1000 to 5000 nM and an IC50 [2, 6] greater than 5000 nM.
Work on `CCC1(c2cccc(N(C)c3ccc(F)nc3)c2)C2=C(CC(C)(C)CC2=O)Nc2n[nH]cc21` (stereo not drawn) [Compound 917152] yielded an IC50 [1, 5] of no more than 100 nM and an IC50 [2, 6] of 100 to 1000 nM.
Work on `CC[C@@]1(c2cccc(C(F)(F)F)c2)C2=C(CNC2=O)Nc2n[nH]cc21` [Compound 917157] yielded an IC50 [1, 3] greater than 5000 nM and an IC50 [2, 4] greater than 5000 nM.
Compound `CCC1(c2cccc(C(F)(F)F)c2)C2=C(CNC2=O)Nc2n[nH]cc21` (stereo not drawn) [Compound 917158] has an IC50 [1, 3] of 100 to 1000 nM and an IC50 [2, 4] of 1000 to 5000 nM.
`CCC1(c2cccc(C(F)(F)F)c2)C2=C(CN(Cc3ccccc3)C2=O)Nc2n[nH]cc21` (stereo not drawn) [Compound 917159] gave an IC50 [1, 3] of no more than 100 nM and an IC50 [2, 4] of 100 to 1000 nM.
`C[C@@H]1C[C@]2(CCN1S(=O)(=O)c1ccn(C)n1)C1=C(CC(C)(C)CC1=O)Nc1n[nH]cc12` [Compound 917160] was tested, and the IC50 [1, 3] was 100 to 1000 nM and the IC50 [2, 4] was 100 to 1000 nM.
In the case of `C[C@@H]1C[C@@]2(CCN1S(=O)(=O)c1ccn(C)n1)C1=C(CC(C)(C)CC1=O)Nc1n[nH]cc12` [Compound 917161], the IC50 [1, 3] is reported as no more than 100 nM and the IC50 [2, 4] is reported as no more than 100 nM.
Compound `CC[C@]1(c2cccc(N3CCCC[C@H]3C)c2)C2=C(CC(C)(C)CC2=O)Nc2n[nH]cc21` [Compound 917210] has an IC50 [1, 5] greater than 5000 nM and an IC50 [2, 6] greater than 5000 nM.
Work on `CCC1(c2cccc(Oc3cncnc3)c2)C2=C(CC(C)(C)CC2=O)Nc2n[nH]cc21` (stereo not drawn) [Compound 917212] yielded an IC50 [1, 5] of no more than 100 nM and an IC50 [2, 6] of 100 to 1000 nM.
In the case of `CC1(C)CC(=O)C2=C(C1)Nc1n[nH]cc1C21Cc2ccccc21` (stereo not drawn) [Compound 917226], the IC50 [1, 5] is reported as 100 to 1000 nM and the IC50 [2, 6] is reported as 100 to 1000 nM.
With `CC1(C)CC(=O)C2=C(C1)Nc1n[nH]cc1C21COC2(CN(C(=O)c3ccccc3)C2)C1` (stereo not drawn) [Compound 917231] the IC50 [1, 9] was no more than 100 nM and the IC50 [2, 10] was no more than 100 nM.
Work on `CC1(C)CC(=O)C2=C(C1)Nc1n[nH]cc1C21COC2(CN(C(=O)C3CCCC3)C2)C1` (stereo not drawn) [Compound 917232] yielded an IC50 [1, 9] of no more than 100 nM and an IC50 [2, 10] of no more than 100 nM.
For `CC[C@@]1(c2cccc(C(F)(F)F)c2)C2=C(CCN(C)C2=O)Nc2n[nH]cc21` [Compound 917282], the IC50 [1, 9] was no more than 100 nM and the IC50 [2, 10] was 100 to 1000 nM.
Compound `CC[C@]1(c2cccc(C(F)(F)F)c2)C2=C(CCN(C)C2=O)Nc2n[nH]cc21` [Compound 917283] has an IC50 [1, 9] greater than 5000 nM and an IC50 [2, 10] greater than 5000 nM.
With `CCC1(c2cccc(C(F)(F)F)c2)C2=C(CC(c3ccccc3)NC2=O)Nc2n[nH]cc21` (stereo not drawn) [Compound 917284] the IC50 [1, 9] was 100 to 1000 nM and the IC50 [2, 10] was 1000 to 5000 nM.
`CCC1(c2cccc(-c3ccnc(C)c3)c2)C2=C(CC(C)(C)CC2=O)Nc2n[nH]c(C(F)(F)F)c21` (stereo not drawn) [Compound 917289] was tested, and the IC50 [1, 5] was 100 to 1000 nM, the IC50 [1, 7] was greater than 5000 nM and the IC50 [2, 6] was 1000 to 5000 nM. For the same compound, the IC50 [2, 8] was greater than 5000 nM.
